This note sets out measurements from patent publication US9856245B2, “GPR40 agonists for the treatment of type II diabetes” (Janssen Pharmaceutica NV, priority 2015, dated 2018).

Broadly, the pEC50 is −log10 of the EC50, conventionally taken in molar units. Broadly, the EC50 is the concentration at which the effect is half-maximal.

Structures are written as SMILES. pEC50: −log10 of the molar value. Several values for one entry are separate records, joined by “and”; a condition that tells them apart may be missing. Identical values can stand only once.

The target in this assay is T1, human GPR40 (Homo sapiens, UniProt O14842).
T1 construct: expressed in transfected cells
T1 sequence (O14842 whole entry): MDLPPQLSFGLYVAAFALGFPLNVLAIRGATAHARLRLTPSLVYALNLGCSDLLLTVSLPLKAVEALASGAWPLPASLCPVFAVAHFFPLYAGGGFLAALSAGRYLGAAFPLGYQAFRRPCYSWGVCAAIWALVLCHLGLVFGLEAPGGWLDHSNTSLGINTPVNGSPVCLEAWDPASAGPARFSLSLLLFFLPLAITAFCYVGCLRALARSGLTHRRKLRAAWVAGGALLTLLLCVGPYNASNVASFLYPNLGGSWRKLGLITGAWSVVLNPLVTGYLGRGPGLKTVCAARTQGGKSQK
Description: GPR40 calcium flux assay (hGPR40 Ca2+ Assay). Format: cell-based. The conditions noted are these: transfected HEK293 cells stably expressing human GPR40; Fluo 8 calcium dye; multiple values = repeated testing; read-out: hGPR40 Ca^2+ Assay EC50. The method, then:
Compounds were tested in a calcium flux assay using transfected HEK293 cells stably expressing either human GPR40 or rat GPR40. Human GPR40 expressing cells were cultured in DMEM-High Glucose media supplemented with 10% fetal bovine serum, 1× L-Glutamine, 1× Penicillin/Streptomycin and 500 μg/mL G418. Rat GPR40 expressing cells were cultured in DMEM-High Glucose media supplemented with 10% fetal bovine serum and 1 μg/mL puromycin. Cells were plated into poly-D-lysine coated 384-well plates and cultured overnight in a 37° C. humidified tissue culture incubator under 5% CO2/[…] atmosphere. On the day of the experiment, the culture media was replaced with assay buffer (HBSS, 20 mM HEPES, 0.1% BSA) and the cells incubated at 37° C. for 1 h. Calcium-sensitive fluorescent dye (Fluo 8 No-Wash Calcium Dye, ABD Bioquest) was then added and the cells incubated for another 30 min at 37° C. followed by 15 min at room temperature while protected from the light. The cell plate and a plate of diluted compounds of Formula (III) were loaded into a fluorescent plate reader that added compounds onto the cells while measuring the fluorescence intensity of each well. The plate reader recorded fluorescence intensity at 1 second intervals for 8 min and provided the data for analysis in an Excel format. EC50 values were calculated using Prism (GraphPad) software.
In general terms: A change in cytosolic calcium serves as a functional read-out for many receptors and channels.
With `COc1ccc(F)c(-n2nnc(COc3cc(C(CC(=O)O)C4CC4)ccn3)c2C2=CCCC2(C)C)c1` (racemic) [Cpd 63, 3-cyclopropyl-3-[2-[[5-(5,5-dimethylcyclopenten-1-yl)-1-(2-fluoro-5-methoxy-phenyl)triazol-4-yl]methoxy]-4-pyridyl]propanoic acid], the negative logarithm of the EC50 (pEC50) was 9.00.
The same measure, in the same setting: next, `COc1ccc(F)c(-n2nnc(COc3cccc([C@@H](CC(=O)O)C4CC4)c3)c2N2CCCCC2)c1` [Cpd 44, (3S)-3-cyclopropyl-3-[3-[[1-(2-fluoro-5-methoxy-phenyl)-5-(1-piperidyl)triazol-4-yl]methoxy]phenyl]propanoic acid]: 7.85.
Same read-out and setting: for `COc1ccc(F)c(-n2nnc(COc3cc([C@@H](CC(=O)O)C4CC4)ccn3)c2C2=CCCC2(C)C)c1` [Cpd 64, (3S)-3-cyclopropyl-3-[2-[[5-(5,5-dimethylcyclopenten-1-yl)-1-(2-fluoro-5-methoxy-phenyl)triazol-4-yl]methoxy]-4-pyridyl]propanoic acid] the value was 9.00.
On to `COc1ccc(F)c(-n2ncc(COc3cc(C(CC(=O)O)C4CC4)ccn3)c2C2=CCCC2(C)C)c1` (stereo not shown) [Cpd 65, 3-cyclopropyl-3-[2-[[5-(5,5-dimethylcyclopenten-1-yl)-1-(2-fluoro-5-methoxy-phenyl)pyrazol-4-yl]methoxy]-4-pyridyl]propanoic acid], for which the negative-log EC50 (pEC50) is 9.00.
The same measure, in the same setting: for `COc1ccc(F)c(-n2ncc(COc3cccc([C@@H](CC(=O)O)C4CC4)c3)c2C2=CCCC2(C)C)c1` [Cpd 66, (3S)-3-cyclopropyl-3-[3-[[5-(5,5-dimethylcyclopenten-1-yl)-1-(2-fluoro-5-methoxy-phenyl)pyrazol-4-yl]methoxy]phenyl]propanoic acid] the value was 8.70 and 9.00.
Turning to `COc1ccc(F)c(-n2nnc(COc3cccc([C@@H](CC(=O)O)C4CC4)c3)c2OC2CCCC2)c1` [Cpd 67, (3S)-3-[3-[[5-(cyclopentoxy)-1-(2-fluoro-5-methoxy-phenyl)triazol-4-yl]methoxy]phenyl]-3-cyclopropyl-propanoic acid], the EC50 is 6 nM and 10 nM (2×).
On to `COc1ccc(F)c(-n2nnc(COc3cccc([C@@H](CC(=O)O)C4CC4)c3)c2N2CC3(CCC3)C2)c1` [Cpd 68, (3S)-3-[3-[[5-(6-azaspiro[3.3]heptan-6-yl)-1-(2-fluoro-5-methoxy-phenyl)triazol-4-yl]methoxy]phenyl]-3-cyclopropyl-propanoic acid], for which the pEC50 was 8.15 and 7.92 and 7.96.
Still for that read-out and setting: next, `COc1ccc(F)c(-n2ncc(COc3cccc([C@@H](CC(=O)O)C4CC4)c3)c2C2CC2)c1` [Cpd 69, (3S)-3-cyclopropyl-3-[3-[[5-cyclopropyl-1-(2-fluoro-5-methoxy-phenyl)pyrazol-4-yl]methoxy]phenyl]propanoic acid]: 7.82 and 7.68 and 7.77; `COc1cc(-n2ncc(COc3cccc([C@@H](CC(=O)O)C4CC4)c3)c2C2CC2)c(F)cn1` [Cpd 70, (3S)-3-cyclopropyl-3-[3-[[5-cyclopropyl-1-(5-fluoro-2-methoxy-4-pyridyl)pyrazol-4-yl]methoxy]phenyl]propanoic acid]: 7.80; `COc1ccc(F)c(-n2ncc(COc3cc(C(CC(=O)O)C4CC4)c(Cl)cn3)c2C2=CCCC2(C)C)c1` (stereo not shown) [Cpd 71, 3-[5-chloro-2-[[5-(5,5-dimethylcyclopenten-1-yl)-1-(2-fluoro-5-methoxy-phenyl)pyrazol-4-yl]methoxy]-4-pyridyl]-3-cyclopropyl-propanoic acid]: 7.62.
For the compound `COc1ccc(F)c(-n2cc(COc3cccc([C@@H](CC(=O)O)C4CC4)c3)cn2)c1` [Cpd 72, (3S)-3-cyclopropyl-3-[3-[[1-(2-fluoro-5-methoxy-phenyl)pyrazol-4-yl]methoxy]phenyl]propanoic acid], the pEC50 was 7.62 and 7.35 and 7.41.
The same measure, in the same setting: next, `COc1ccc(F)c(-n2ncc(COc3cccc([C@@H](CC(=O)O)C4CC4)c3)c2N2CCOCC2)c1` [Cpd 73, (3S)-3-cyclopropyl-3-[3-[[1-(2-fluoro-5-methoxy-phenyl)-5-morpholino-pyrazol-4-yl]methoxy]phenyl]propanoic acid]: 7.57; `COc1ccc(F)c(-n2nnc(/C=C/c3cccc([C@@H](CC(=O)O)C4CC4)c3)c2C2CC2)c1` [Cpd 74, (3S)-3-cyclopropyl-3-[3-[(E)-2-[5-cyclopropyl-1-(2-fluoro-5-methoxy-phenyl)triazol-4-yl]vinyl]phenyl]propanoic acid]: 7.42; `COc1ccc(F)c(-n2nnc(COc3cc([C@H](CC(=O)O)C4CC4)ccn3)c2C2=CCCC2(C)C)c1` [Cpd 75, (3R)-3-cyclopropyl-3-[2-[[5-(5,5-dimethylcyclopenten-1-yl)-1-(2-fluoro-5-methoxy-phenyl)triazol-4-yl]methoxy]-4-pyridyl]propanoic acid]: 7.22.
The same measure, in the same setting: for `COc1ccc(F)c(-n2ncc(/C=C/c3cccc(C(CC(=O)O)C4CC4)c3)c2C2CC2)c1` (stereo not shown) [Cpd 76, 3-cyclopropyl-3-[3-[(E)-2-[5-cyclopropyl-1-(2-fluoro-5-methoxy-phenyl)pyrazol-4-yl]vinyl]phenyl]propanoic acid] the value was 7.18.
Still for that read-out and setting: for `COc1ccc(F)c(-n2ncc(CCc3cccc(C(CC(=O)O)C4CC4)c3)c2C2CC2)c1` (stereo not shown) [Cpd 77, 3-cyclopropyl-3-[3-[2-[5-cyclopropyl-1-(2-fluoro-5-methoxy-phenyl)pyrazol-4-yl]ethyl]phenyl]propanoic acid] the value was 7.18.
On to `COc1ccc(F)c(-n2nnc(COc3cc(C(CC(=O)O)C4CC4)c(Cl)cn3)c2C2=CCCC2(C)C)c1` (stereo not shown) [Cpd 78, 3-[5-chloro-2-[[5-(5,5-dimethylcyclopenten-1-yl)-1-(2-fluoro-5-methoxy-phenyl)triazol-4-yl]methoxy]-4-pyridyl]-3-cyclopropyl-propanoic acid], for which the pEC50 is 7.16.
Still for that read-out and setting: for `COc1ccc(F)c(-n2nnc(CCc3cccc([C@@H](CC(=O)O)C4CC4)c3)c2C2CC2)c1` [Cpd 79, (3S)-3-cyclopropyl-3-[3-[2-[5-cyclopropyl-1-(2-fluoro-5-methoxy-phenyl)triazol-4-yl]ethyl]phenyl]propanoic acid] the value was 6.99.
Still for that read-out and setting: next, `COc1ccc(F)c(-n2nnc(COc3cccc([C@@H](CC(=O)O)C4CC4)c3)c2N2CCOCC2)c1` [Cpd 80, (3S)-3-cyclopropyl-3-[3-[[1-(2-fluoro-5-methoxy-phenyl)-5-morpholino-triazol-4-yl]methoxy]phenyl]propanoic acid]: 6.56; `COc1ccc(F)c(-n2nnc(COc3cccc([C@@H](CC(=O)O)C4CC4)c3)c2C)c1` [Cpd 82, (3S)-3-cyclopropyl-3-[3-[[1-(2-fluoro-5-methoxy-phenyl)-5-methyl-triazol-4-yl]methoxy]phenyl]propanoic acid]: 6.58 and 6.61.
Same read-out and setting: next, `COc1ccc(F)c(-n2nnc(COc3cccc([C@@H](CC(=O)O)C4CC4)c3)c2CC(C)C)c1` [Cpd 83, (3S)-3-cyclopropyl-3-[3-[[1-(2-fluoro-5-methoxy-phenyl)-5-isobutyl-triazol-4-yl]methoxy]phenyl]propanoic acid]: 8.15 and 8.22.
Regarding `COc1ccc(F)c(-n2nnc(COc3cccc([C@@H](CC(=O)O)C4CC4)c3)c2C=C(C)C)c1` [Cpd 84, (3S)-3-cyclopropyl-3-[3-[[1-(2-fluoro-5-methoxy-phenyl)-5-(2-methylprop-1-enyl)triazol-4-yl]methoxy]phenyl]propanoic acid], the EC50 is 38 nM and 31 nM and 37 nM (2×).
In the case of `COc1ccc(F)c(-n2nnc(COc3cccc([C@@H](CC(=O)O)C4CC4)c3)c2C2CC2)c1` [Cpd 85, (3S)-3-cyclopropyl-3-[3-[[5-cyclopropyl-1-(2-fluoro-5-methoxy-phenyl)triazol-4-yl]methoxy]phenyl]propanoic acid], the pEC50 is 7.19 and 7.20.
On the same count and under the same terms, next, `COc1ccc(F)c(-n2nnc(COc3cccc([C@@H](CC(=O)O)C4CC4)c3)c2C2=CCCC2(C)C)c1` [Cpd 86, (3S)-3-cyclopropyl-3-[3-[[5-(5,5-dimethylcyclopenten-1-yl)-1-(2-fluoro-5-methoxy-phenyl)triazol-4-yl]methoxy]phenyl]propanoic acid]: 8.40 and 8.70; `COc1ccc(F)c(-n2cnc(COc3cccc([C@@H](CC(=O)O)C4CC4)c3)c2C2=CCCC2(C)C)c1` [Cpd 87, (3S)-3-cyclopropyl-3-[3-[[5-(5,5-dimethylcyclopenten-1-yl)-1-(2-fluoro-5-methoxy-phenyl)imidazol-4-yl]methoxy]phenyl]propanoic acid]: 7.07 and 7.17; `COc1ccc(F)c(-n2nnc(COc3cccc([C@@H](CC(=O)O)C4CC4)c3)c2-c2ccc(C)s2)c1` [Cpd 88, (3S)-3-cyclopropyl-3-[3-[[1-(2-fluoro-5-methoxy-phenyl)-5-(5-methyl-2-thienyl)triazol-4-yl]methoxy]phenyl]propanoic acid]: 7.62 and 7.64.
Still for that read-out and setting: for `COc1ccc(F)c(-n2ncc(COc3cccc([C@@H](CC(=O)O)C4CC4)c3)c2C=C(C)C)c1` [Cpd 89, (3S)-3-cyclopropyl-3-[3-[[1-(2-fluoro-5-methoxy-phenyl)-5-(2-methylprop-1-enyl)pyrazol-4-yl]methoxy]phenyl]propanoic acid] the value was 7.96 and 8.05; for `COc1ccc(F)c(-n2ncc(COc3cccc([C@@H](CC(=O)O)C4CC4)c3)c2Br)c1` [Cpd 90, (3S)-3-[3-[[5-bromo-1-(2-fluoro-5-methoxy-phenyl)pyrazol-4-yl]methoxy]phenyl]-3-cyclopropyl-propanoic acid], 7.07 and 7.08.
